Assay results published in patent US11472791B2 (Incyte Corporation, priority 2019, dated 2022).

target: CDK2/Cyclin E1 (Homo sapiens (Human), UniProt P24941); experiment: CDK2/Cyclin E1 HTRF enzyme activity assay; type: biochemical; conditions: 1 mM ATP
Procedure: Assays are conducted in white 384-well polystyrene plates in a final reaction volume of 8 μL. […] HTRF signals are read after 1 hour at room temperature on a PHERAstar FS plate reader (BMG Labtech). Data is analyzed with IDBS XLFit and GraphPad Prism 5.0 software using a three or four parameter dose response curve to determine IC50 for each compound.

IC50, < 50 nM:
CC(C)(C(N)=O)n1cc(-c2nc(NC3CCN(S(=O)(=O)C4CC4)CC3)ncc2C(F)(F)F)cn1 [Example 98, 2-(4-(2-((1-(Cyclopropylsulfonyl)piperidin-4-yl)amino)-5-(trifluoromethyl)pyrimidin-4-yl)-1H-pyrazol-1-yl)-2-methylpropanamide]
Cc1cc(CN2CCN(C)CC2)ccc1-n1cc(-c2nc(NC3CCN(S(=O)(=O)c4cn(C)cn4)CC3)ncc2C(F)(F)F)cn1 [Example 100, N-(1-((1-Methyl-1H-imidazol-4-yl)sulfonyl)piperidin-4-yl)-4-(1-(2-methyl-4-((4-methylpiperazin-1-yl)methyl)phenyl)-1H-pyrazol-4-yl)-5-(trifluoromethyl)pyrimidin-2-amine]
Cc1cc(CN2CCN(C)CC2)ccc1-n1cc(-c2nc(N[C@H]3CCN(S(C)(=O)=O)C[C@H]3F)ncc2C(F)(F)F)cn1 [Example 101, N-((3R,4S)-3-Fluoro-1-(methylsulfonyl)piperidin-4-yl)-4-(1-(2-methyl-4-((4-methylpiperazin-1-yl)methyl)phenyl)-1H-pyrazol-4-yl)-5-(trifluoromethyl)pyrimidin-2-amine]
Cc1cc(CN2CCN(C)CC2)ccc1-n1cc(-c2nc(N[C@H]3CCN(S(=O)(=O)c4cn(C)cn4)C[C@H]3F)ncc2C(F)(F)F)cn1 [Example 102, N-((3R,4S)-3-Fluoro-1-((1-methyl-1H-imidazol-4-yl)sulfonyl)piperidin-4-yl)-4-(1-(2-methyl-4-((4-methylpiperazin-1-yl)methyl)phenyl)-1H-pyrazol-4-yl)-5-(trifluoromethyl)pyrimidin-2-amine]
Cc1cc(CN2CCN(C)CC2)ccc1-n1cc(-c2nc(N[C@H]3CCN(S(=O)(=O)c4ccn(C)n4)C[C@H]3F)ncc2C(F)(F)F)cn1 [Example 103, N-((3R,4S)-3-Fluoro-1-((1-methyl-1H-pyrazol-3-yl)sulfonyl)piperidin-4-yl)-4-(1-(2-methyl-4-((4-methylpiperazin-1-yl)methyl)phenyl)-1H-pyrazol-4-yl)-5-(trifluoromethyl)pyrimidin-2-amine]
CC(=O)N1CCN(Cc2ccc(-n3cc(-c4nc(N[C@H]5CCN(S(=O)(=O)c6cn(C)cn6)C[C@H]5F)ncc4C(F)(F)F)cn3)c(C)c2)CC1 [Example 104, 1-(4-(4-(4-(2-(((3R,4S)-3-Fluoro-1-((1-methyl-1H-imidazol-4-yl)sulfonyl)piperidin-4-yl)amino)-5-(trifluoromethyl)pyrimidin-4-yl)-1H-pyrazol-1-yl)-3-methylbenzyl)piperazin-1-yl)ethan-1-one]
CC(=O)N1CCN(Cc2ccc(-n3cc(-c4nc(NC5CCN(S(=O)(=O)c6cn(C)cn6)CC5)ncc4C(F)(F)F)cn3)c(C)c2)CC1 [Example 105, 1-(4-(3-Methyl-4-(4-(2-((1-((1-methyl-1H-imidazol-4-yl)sulfonyl)piperidin-4-yl)amino)-5-(trifluoromethyl)pyrimidin-4-yl)-1H-pyrazol-1-yl)benzyl)piperazin-1-yl)ethan-1-one]
Cc1cc(CN(C)C)ccc1-n1cc(-c2nc(NC3CCN(S(=O)(=O)c4cn(C)cn4)CC3)ncc2C(F)(F)F)cn1 [Example 106, 4-(1-(4-((Dimethylamino)methyl)-2-methylphenyl)-1H-pyrazol-4-yl)-N-(1-((1-methyl-1H-imidazol-4-yl)sulfonyl)piperidin-4-yl)-5-(trifluoromethyl)pyrimidin-2-amine]
Cc1cc(CN2CCOCC2)ccc1-n1cc(-c2nc(NC3CCN(S(=O)(=O)c4cn(C)cn4)CC3)ncc2C(F)(F)F)cn1 [Example 107, N-(1-((1-Methyl-1H-imidazol-4-yl)sulfonyl)piperidin-4-yl)-4-(1-(2-methyl-4-(morpholinomethyl)phenyl)-1H-pyrazol-4-yl)-5-(trifluoromethyl)pyrimidin-2-amine]
CN1CCN(Cc2ccc(-n3cc(-c4nc(NC5CCN(S(=O)(=O)c6cn(C)cn6)CC5)ncc4Cl)cn3)c(Cl)c2)CC1 [Example 108, 5-Chloro-4-(1-(2-chloro-4-((4-methylpiperazin-1-yl)methyl)phenyl)-1H-pyrazol-4-yl)-N-(1-((1-methyl-1H-imidazol-4-yl)sulfonyl)piperidin-4-yl)pyrimidin-2-amine]
Cc1cc(CN2CCN(C)CC2)ccc1-n1cc(-c2nc(NC3CCN(S(=O)(=O)c4cn(C)cn4)CC3)ncc2Cl)cn1 [Example 109, 5-Chloro-N-(1-((1-methyl-1H-imidazol-4-yl)sulfonyl)piperidin-4-yl)-4-(1-(2-methyl-4-((4-methylpiperazin-1-yl)methyl)phenyl)-1H-pyrazol-4-yl)pyrimidin-2-amine]
Cc1cc(CN2CCN(C)CC2)ccc1-n1cc(-c2nc(NC3CCN(S(=O)(=O)c4ccn(C)n4)CC3)ncc2Cl)cn1 [Example 110, 5-Chloro-N-(1-((1-methyl-1H-pyrazol-3-yl)sulfonyl)piperidin-4-yl)-4-(1-(2-methyl-4-((4-methylpiperazin-1-yl)methyl)phenyl)-1H-pyrazol-4-yl)pyrimidin-2-amine]
CN1CCN(Cc2ccc(-n3cc(-c4nc(N[C@H]5CCN(S(C)(=O)=O)C[C@H]5F)ncc4C#N)cn3)c(Cl)c2)CC1 [Example 111, 4-(1-(2-Chloro-4-((4-methylpiperazin-1-yl)methyl)phenyl)-1H-pyrazol-4-yl)-2-(((3R,4S)-3-fluoro-1-(methylsulfonyl)piperidin-4-yl)amino)pyrimidine-5-carbonitrile]
CCS(=O)(=O)N1CCC(Nc2ncc(C#N)c(-c3cnn(-c4ccc(CNC)cc4Cl)c3)n2)CC1 [Example 112, 4-(1-(2-Chloro-4-((methylamino)methyl)phenyl)-1H-pyrazol-4-yl)-2-((1-(ethylsulfonyl)piperidin-4-yl)amino)pyrimidine-5-carbonitrile]
CNCc1ccc(-n2cc(-c3nc(NC4CCN(S(=O)(=O)C5CC5)CC4)ncc3C#N)cn2)c(Cl)c1 [Example 114, 4-(1-(2-Chloro-4-((methylamino)methyl)phenyl)-1H-pyrazol-4-yl)-2-((1-(cyclopropylsulfonyl)piperidin-4-yl)amino)pyrimidine-5-carbonitrile]
CCNCc1ccc(-n2cc(-c3nc(NC4CCN(S(C)(=O)=O)CC4)ncc3C#N)cn2)c(Cl)c1 [Example 115, 4-(1-(2-Chloro-4-((ethylamino)methyl)phenyl)-1H-pyrazol-4-yl)-2-((1-(methylsulfonyl)piperidin-4-yl)amino)pyrimidine-5-carbonitrile]
CNCc1ccc(-n2cc(-c3nc(N[C@H]4CCN(S(C)(=O)=O)C[C@H]4F)ncc3C#N)cn2)c(Cl)c1 [Example 116, 4-(1-(2-Chloro-4-((methylamino)methyl)phenyl)-1H-pyrazol-4-yl)-2-(((3R,4S)-3-fluoro-1-(methylsulfonyl)piperidin-4-yl)amino)pyrimidine-5-carbonitrile]
CCS(=O)(=O)N1CC[C@H](Nc2ncc(C#N)c(-c3cnn(-c4ccc(CNC)cc4Cl)c3)n2)[C@H](F)C1 [Example 117, 4-(1-(2-Chloro-4-((methylamino)methyl)phenyl)-1H-pyrazol-4-yl)-2-(((3R,4S)-1-(ethylsulfonyl)-3-fluoropiperidin-4-yl)amino)pyrimidine-5-carbonitrile]
